Where two headings read alike, the source gives them in different places.

Holding throughout (experiment): HotSpot kinase profiling
What all share (type): biochemical

Experiment [1] deals with T1, EPHB1 (Homo sapiens, UniProt P54762).
T1 construct: purchased Reaction Biology Corp
T1 sequence (P54762 18-984): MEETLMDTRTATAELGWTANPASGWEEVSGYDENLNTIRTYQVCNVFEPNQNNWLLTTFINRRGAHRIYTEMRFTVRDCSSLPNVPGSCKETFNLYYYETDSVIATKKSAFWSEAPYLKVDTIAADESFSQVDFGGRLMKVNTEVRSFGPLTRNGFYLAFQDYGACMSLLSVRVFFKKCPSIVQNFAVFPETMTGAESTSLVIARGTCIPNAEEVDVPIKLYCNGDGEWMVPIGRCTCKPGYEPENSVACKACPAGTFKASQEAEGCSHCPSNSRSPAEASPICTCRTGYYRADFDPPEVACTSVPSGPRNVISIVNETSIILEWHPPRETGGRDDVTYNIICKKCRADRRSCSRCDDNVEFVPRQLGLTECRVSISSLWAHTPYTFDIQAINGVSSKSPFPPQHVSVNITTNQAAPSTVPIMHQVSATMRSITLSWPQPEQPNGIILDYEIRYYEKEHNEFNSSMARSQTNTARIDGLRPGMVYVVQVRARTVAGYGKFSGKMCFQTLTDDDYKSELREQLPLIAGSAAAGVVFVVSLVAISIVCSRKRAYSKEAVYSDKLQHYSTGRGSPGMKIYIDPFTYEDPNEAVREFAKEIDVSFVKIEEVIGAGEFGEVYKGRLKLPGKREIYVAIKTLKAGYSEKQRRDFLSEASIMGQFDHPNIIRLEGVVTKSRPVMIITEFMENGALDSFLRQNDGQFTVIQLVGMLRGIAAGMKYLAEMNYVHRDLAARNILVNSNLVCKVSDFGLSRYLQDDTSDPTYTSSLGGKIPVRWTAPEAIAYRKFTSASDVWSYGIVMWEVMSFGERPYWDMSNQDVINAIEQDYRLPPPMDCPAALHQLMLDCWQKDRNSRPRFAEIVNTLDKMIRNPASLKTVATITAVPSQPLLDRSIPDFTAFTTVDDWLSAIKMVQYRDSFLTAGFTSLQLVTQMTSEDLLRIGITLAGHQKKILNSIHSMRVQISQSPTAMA
In short, it runs like this:
(§1)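 Percent inhibition, averaged when run more than once and referenced to a DMSO negative control, came from a radioactive filter-binding readout on P81 paper. Reactions of kinase with freshly made substrate and cofactors ran for 2 h at room temperature.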

Experiment [2] deals with T2, CK1g1 (Homo sapiens, UniProt Q9HCP0).
T2 construct: purchased Reaction Biology Corp
T2 sequence (Q9HCP0 whole entry): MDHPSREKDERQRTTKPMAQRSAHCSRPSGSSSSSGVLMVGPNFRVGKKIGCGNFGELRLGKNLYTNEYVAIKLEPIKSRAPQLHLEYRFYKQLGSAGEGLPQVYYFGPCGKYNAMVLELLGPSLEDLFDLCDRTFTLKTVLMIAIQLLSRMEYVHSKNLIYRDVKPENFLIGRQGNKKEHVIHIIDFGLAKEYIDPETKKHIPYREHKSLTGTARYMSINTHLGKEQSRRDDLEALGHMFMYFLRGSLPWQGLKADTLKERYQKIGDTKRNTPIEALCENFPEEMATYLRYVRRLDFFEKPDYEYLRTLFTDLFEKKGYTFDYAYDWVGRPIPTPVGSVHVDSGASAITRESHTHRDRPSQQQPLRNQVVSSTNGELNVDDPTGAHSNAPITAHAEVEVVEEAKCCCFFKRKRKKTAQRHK
A digest of the protocol: as §1

In experiment [3] the target is T3, PKCb2 (Homo sapiens, UniProt P05771).
T3 construct: purchased Reaction Biology Corp
T3 sequence (P05771 1-673 isoform P05771-2): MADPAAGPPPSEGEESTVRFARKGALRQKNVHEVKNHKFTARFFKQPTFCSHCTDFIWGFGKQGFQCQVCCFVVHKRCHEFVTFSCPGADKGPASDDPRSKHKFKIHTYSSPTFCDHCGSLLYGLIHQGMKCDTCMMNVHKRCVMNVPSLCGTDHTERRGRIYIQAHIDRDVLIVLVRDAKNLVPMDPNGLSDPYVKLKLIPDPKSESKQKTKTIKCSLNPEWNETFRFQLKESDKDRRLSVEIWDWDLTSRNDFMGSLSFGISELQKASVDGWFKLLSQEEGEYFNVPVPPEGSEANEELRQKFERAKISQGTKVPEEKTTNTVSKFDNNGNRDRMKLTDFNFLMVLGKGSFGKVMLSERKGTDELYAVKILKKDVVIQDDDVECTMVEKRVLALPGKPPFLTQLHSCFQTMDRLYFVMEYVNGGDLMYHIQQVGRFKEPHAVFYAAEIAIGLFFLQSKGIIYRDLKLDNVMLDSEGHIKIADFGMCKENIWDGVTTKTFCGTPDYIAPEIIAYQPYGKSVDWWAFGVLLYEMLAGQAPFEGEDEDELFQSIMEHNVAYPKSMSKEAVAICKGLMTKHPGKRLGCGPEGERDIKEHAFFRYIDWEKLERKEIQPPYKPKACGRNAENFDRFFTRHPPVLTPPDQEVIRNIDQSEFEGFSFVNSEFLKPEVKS
In short, it runs like this:
as §1

Experiment [4] concerns the target T4, CDK7/cyclin H (Homo sapiens, UniProt P50613).
T4 construct: purchased Reaction Biology Corp
In short, it runs like this: as §1

In experiment [5] the target is T5, TSSK2 (Homo sapiens, UniProt Q96PF2).
T5 construct: purchased Reaction Biology Corp
T5 sequence (Q96PF2 1-358): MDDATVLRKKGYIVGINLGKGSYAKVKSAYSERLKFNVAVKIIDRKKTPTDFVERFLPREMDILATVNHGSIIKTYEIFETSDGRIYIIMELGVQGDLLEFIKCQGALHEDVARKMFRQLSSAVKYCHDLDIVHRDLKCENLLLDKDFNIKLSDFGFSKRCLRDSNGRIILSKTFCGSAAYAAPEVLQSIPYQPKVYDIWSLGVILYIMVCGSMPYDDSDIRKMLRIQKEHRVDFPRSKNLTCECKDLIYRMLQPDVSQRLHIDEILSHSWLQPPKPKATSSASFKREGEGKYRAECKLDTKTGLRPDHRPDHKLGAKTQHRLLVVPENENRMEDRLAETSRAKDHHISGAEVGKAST
In short, it runs like this: as §1

Experiment [6] addresses T6, AKT2 (Homo sapiens, UniProt P31751).
T6 construct: purchased Reaction Biology Corp
In short, it runs like this: as §1

Experiment [7] concerns the target T7, CLK4 (Homo sapiens, UniProt Q9HAZ1).
T7 construct: purchased Reaction Biology Corp
In short, it runs like this:
as §1

Experiment [8] addresses T8, DYRK4 (Homo sapiens, UniProt Q9NR20).
T8 construct: purchased Reaction Biology Corp
T8 sequence (Q9NR20 1-520): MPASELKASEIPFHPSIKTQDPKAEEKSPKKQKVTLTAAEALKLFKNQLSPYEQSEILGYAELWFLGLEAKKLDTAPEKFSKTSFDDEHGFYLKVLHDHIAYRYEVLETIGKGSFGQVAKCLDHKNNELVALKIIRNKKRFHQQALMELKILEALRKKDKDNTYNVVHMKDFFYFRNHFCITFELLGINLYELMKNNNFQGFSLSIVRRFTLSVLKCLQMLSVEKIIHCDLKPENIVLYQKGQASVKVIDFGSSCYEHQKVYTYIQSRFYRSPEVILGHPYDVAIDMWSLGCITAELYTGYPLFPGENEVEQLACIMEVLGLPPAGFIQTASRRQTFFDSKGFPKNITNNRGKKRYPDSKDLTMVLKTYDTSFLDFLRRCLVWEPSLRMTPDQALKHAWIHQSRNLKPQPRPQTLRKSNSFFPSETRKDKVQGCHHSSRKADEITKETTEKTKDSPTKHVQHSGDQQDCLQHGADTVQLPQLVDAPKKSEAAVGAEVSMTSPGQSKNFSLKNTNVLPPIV
A digest of the protocol: as §1

The mark [9] stands for this setting: read-out: % Enzyme Activity (relative to DMSO controls) Run 1.
The mark [10] stands for this setting: read-out: % Enzyme Activity (relative to DMSO controls) Run 2.

T4 sequence (P50613 whole entry): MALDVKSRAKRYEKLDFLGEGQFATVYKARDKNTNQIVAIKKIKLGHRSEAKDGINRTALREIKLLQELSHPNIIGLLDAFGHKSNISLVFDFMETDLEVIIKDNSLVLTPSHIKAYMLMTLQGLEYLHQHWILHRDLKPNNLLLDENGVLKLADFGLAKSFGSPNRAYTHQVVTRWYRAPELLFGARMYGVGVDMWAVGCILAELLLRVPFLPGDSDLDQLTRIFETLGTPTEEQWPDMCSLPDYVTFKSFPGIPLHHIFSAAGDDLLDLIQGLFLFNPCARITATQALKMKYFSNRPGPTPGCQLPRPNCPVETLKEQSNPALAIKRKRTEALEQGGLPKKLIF
T4 sequence (P51946 whole entry partner): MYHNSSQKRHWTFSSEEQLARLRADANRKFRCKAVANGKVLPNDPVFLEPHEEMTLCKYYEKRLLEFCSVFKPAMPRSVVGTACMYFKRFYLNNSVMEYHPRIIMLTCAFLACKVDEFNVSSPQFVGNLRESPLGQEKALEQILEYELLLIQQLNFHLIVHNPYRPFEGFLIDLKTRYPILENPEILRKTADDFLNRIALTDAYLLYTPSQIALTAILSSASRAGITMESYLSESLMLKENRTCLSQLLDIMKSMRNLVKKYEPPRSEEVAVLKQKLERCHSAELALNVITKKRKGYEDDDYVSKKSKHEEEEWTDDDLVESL
T4 sequence (P51948 whole entry partner): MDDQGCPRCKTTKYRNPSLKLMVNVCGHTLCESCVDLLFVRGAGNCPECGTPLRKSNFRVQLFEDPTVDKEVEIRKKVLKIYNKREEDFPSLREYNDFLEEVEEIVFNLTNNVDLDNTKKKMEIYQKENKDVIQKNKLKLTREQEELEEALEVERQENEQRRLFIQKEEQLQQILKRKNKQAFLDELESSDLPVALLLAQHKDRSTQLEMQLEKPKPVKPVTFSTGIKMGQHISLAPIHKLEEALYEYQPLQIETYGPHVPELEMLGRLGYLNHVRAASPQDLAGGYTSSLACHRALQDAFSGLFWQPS
T7 sequence (Q9HAZ1 whole entry): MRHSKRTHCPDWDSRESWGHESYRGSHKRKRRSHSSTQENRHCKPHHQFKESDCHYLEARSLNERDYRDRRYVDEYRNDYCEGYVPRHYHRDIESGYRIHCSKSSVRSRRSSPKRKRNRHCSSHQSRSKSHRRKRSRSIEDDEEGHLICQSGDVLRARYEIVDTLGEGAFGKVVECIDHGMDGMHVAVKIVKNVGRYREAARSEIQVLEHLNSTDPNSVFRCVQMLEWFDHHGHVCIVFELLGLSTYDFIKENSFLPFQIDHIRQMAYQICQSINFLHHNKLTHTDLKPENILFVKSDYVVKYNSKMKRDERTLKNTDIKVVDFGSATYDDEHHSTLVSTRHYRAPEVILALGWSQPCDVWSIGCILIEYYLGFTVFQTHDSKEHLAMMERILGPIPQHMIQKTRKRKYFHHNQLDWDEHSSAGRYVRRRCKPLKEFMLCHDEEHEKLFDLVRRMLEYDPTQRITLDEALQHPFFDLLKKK
T6 sequence (P31751 whole entry): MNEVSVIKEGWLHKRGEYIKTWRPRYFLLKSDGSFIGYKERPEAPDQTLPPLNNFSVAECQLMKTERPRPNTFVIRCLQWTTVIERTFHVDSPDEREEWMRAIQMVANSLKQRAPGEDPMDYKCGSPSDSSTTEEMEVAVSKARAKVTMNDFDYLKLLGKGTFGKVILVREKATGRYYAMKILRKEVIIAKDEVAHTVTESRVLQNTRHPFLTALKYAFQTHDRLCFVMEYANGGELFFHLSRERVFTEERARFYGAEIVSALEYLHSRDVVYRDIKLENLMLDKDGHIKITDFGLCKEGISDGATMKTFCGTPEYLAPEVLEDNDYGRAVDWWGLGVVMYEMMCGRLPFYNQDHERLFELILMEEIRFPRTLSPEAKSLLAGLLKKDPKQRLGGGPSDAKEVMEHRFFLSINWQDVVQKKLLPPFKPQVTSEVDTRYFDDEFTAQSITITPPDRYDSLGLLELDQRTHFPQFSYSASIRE

Turning to `C=CC(=O)Nc1cccc(Nc2nc(Nc3ccc(OCCOC)c(F)c3)ncc2F)c1` [Compound 2], the inhibition (as a rule, the relative decrease from the control value, in per cent) at 3 µM was found to be 20.4% in experiment [1]; 10.5% in experiment [2]; 50.5% in experiment [3]; 2.36% in experiment [4]; 3.36% in experiment [5]; 4.23% in experiment [6]. The inhibition at 3 µM in experiment [7] was 44.3%; in experiment [8], -5.35%. The remaining activity at 3 µM in experiment [1] (setting [9]) was 79.5%; in experiment [1] (setting [10]), 79.7%; in experiment [2] (setting [9]) it was 88.8%; in experiment [2] (setting [10]) it was 90.3%; in experiment [3] (setting [9]), 50.1%; in experiment [3] (setting [10]), 48.9%. For the same compound, the remaining activity at 3 µM in experiment [4] (setting [9]) turned out to be 98.1%; in experiment [4] (setting [10]), 97.2%; in experiment [5] (setting [9]), 97%; in experiment [5] (setting [10]) it was 96.3%; in experiment [6] (setting [9]) it was 93.7%; in experiment [6] (setting [10]), 97.9%. Moreover, the remaining activity at 3 µM in experiment [7] (setting [9]) worked out at 57.4%; in experiment [7] (setting [10]), 53.9%; in experiment [8] (setting [9]), 105%; in experiment [8] (setting [10]), 106%.

The values are drawn from patent US9492471B2, “Methods of treating a disease or disorder associated with Bruton'S Tyrosine Kinase” (Celgene Avilomics Research, Inc., priority 2013, dated 2016).
